From patent US20160052926A1, “NOVEL PYRIMIDINE AND PYRIDINE COMPOUNDS AND USAGE THEREOF” (HUTCHISON MEDIPHARMA LIMITED, priority 2013, published 2016)

Tests used:
[1] = biological target: Recombinant human FGFR1 (Homo sapiens, UniProt P11362); assay: Transcreener Kinase Assay of FGFR1; type: biochemical; details: read-out: FGFR1 (FP) IC50
Procedure: Transcreener Kinase Assay of FGFR1
(§1) Prepare Solution • Compounds were solved in DMSO and were diluted with assay buffer to 5 folds of final concentration keeping the DMSO concentration at 5%. Further dilution are needed to make final concentrations are at 1, 0.33, 0.11, 0.037, 0.012, 0.004, 0.0014, 0.0005 μM; (the final concentration of DMSO is 1%). • Enzyme/Substrate stock Preparation: Recombinant human FGFR1 and Poly E4Y are both diluted in assay buffer.
(§2) Enzymatic Reaction • In a 96-well plate, Add 5 μL of compound or control. (positive control: 5 μL of 5% DMSO; negative control: 5 μL of 500 mM EDTA) into desired wells; • Add 10 μL of Enzyme/Substrate stock into each well; • Add 10 μL of ATP Diluents to initiate the enzyme reaction and votex the plate immediately on a plate shaker; • For the wells to make standard curve, add 5 μL of 5% DMSO, 10 μL of assay buffer and 10 μL of ATP standard curve stock. • Incubate the plate for 45 min at 28[…] on a plate shaker in a low speed.
Excitation wavelength: 610 nm, Emission wavelength: 670 nm.
(§3) • [ADP] in Compound well represents the ADP concentration in compound well. • [ADP] in Positive control well represents the ADP concentration in 5% DMSO well • Conversion of mP value to ADP concentration is calculated based on the formula which determined by standard curve. And mP value is measured by following the instruction provided by BellBrook Labs. (www.bellbrooklabs.com). 6. IC50: calculated using XL-Fit 2.0 software.

[2] = system: SNU-16; assay: Cellular Proliferation Assay (Cell Counting Kit-8), SNU-16; type: cell-based; details: Homo sapiens, SNU-16 cells, 72 hours
Procedure: (§4) Cellular Proliferation Assay
(§5) • KG-1 (ATCC Accession No. CCL-246), • SNU-16 (ATCC Accession No. CRL-5974), • RT-112 (ECACC Accession No. 85061106)
(§6) • FGFR related cancer cell proliferation is measured in 96-well plates using Cell Counting Kit-8 (Dojindo CK04-13). • Seed 30000 cells/well of KG1, 5000 cells/well of SNU16, and 1000 cells/well of RT112 in a volume of 100 μL/well in growth media. • After 24 hours, dilute the compound to 10, 3.3, 1.1, 0.37, 0.12, 0.04, 0.013, 0.004 μM, keeping the DMSO concentration at 5%. • Add 10 μL of 8-point compound series to the wells of culturing cells. • Incubate at 37° C. and 5% CO2 for 72 hours • Add 10 μL/well of CCkit8 and incubate at 37° C. and 5% CO2 for an hour • Detect the optical density of each well at 450 nm on Labsystems Multiskan K3.
(§7) • ODcompound well represents the optical density of cells treated with compound. • ODcell well represents the optical density of cells without compounds treatment. (only 0.5% DMSO) • ODcontrol well represents the optical density of culture media background
(§8) The concentration of compound providing 50% of proliferation inhibition was calculated using Excel Fit.

[3] = biological target: FGFR3 kinase (Homo sapiens, UniProt P22607); assay: Z-Lyte Kinase Assay of FGFR3; type: biochemical
FGFR3 kinase, sequence (P22607 23-806): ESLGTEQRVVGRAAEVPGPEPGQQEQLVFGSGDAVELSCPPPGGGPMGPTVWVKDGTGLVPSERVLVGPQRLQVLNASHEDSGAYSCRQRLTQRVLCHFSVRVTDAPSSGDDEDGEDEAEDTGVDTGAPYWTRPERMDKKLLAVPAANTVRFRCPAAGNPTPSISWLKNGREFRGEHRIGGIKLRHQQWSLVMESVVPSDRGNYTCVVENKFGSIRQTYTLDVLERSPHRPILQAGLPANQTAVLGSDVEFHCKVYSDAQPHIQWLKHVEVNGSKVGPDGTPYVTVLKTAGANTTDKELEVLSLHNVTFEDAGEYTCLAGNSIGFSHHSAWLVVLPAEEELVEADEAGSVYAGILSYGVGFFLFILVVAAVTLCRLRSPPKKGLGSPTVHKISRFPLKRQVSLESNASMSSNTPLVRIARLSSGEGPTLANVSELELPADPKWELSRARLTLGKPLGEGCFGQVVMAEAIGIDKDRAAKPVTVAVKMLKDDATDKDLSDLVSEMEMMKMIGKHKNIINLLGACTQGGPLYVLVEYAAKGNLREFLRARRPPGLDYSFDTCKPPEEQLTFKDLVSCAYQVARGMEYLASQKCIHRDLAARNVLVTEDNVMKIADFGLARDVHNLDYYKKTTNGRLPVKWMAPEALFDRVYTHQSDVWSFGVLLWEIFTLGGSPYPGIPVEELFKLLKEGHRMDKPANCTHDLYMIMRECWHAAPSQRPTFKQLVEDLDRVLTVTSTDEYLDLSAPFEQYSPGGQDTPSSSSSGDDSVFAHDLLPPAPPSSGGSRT
Procedure: Z-Lyte Kinase Assay of FGFR3
The final concentrations are 1, 0.33, 0.11, 0.037, 0.012, 0.004, 0.0014, 0.00046 μM, and the final concentration of DMSO is 2%. • 3) Kinase/Peptide Mixture (P/K solution): Prepare Kinase/Peptide Mixture by diluting the kinase to 0.7 μg/ml and the Z-LYTE™ Tyr 4 peptide to 4 μM in 1.33× Kinase Buffer. Mix gently by pipetting. • 4) Phospho-peptide Solution (PP solution): Add 0.4 μl of Z-LYTE™ Tyr 4 Phospho-peptide to 99.6 μl of 1.33× Kinase Buffer. • 5) ATP Solution: Prepare ATP Solution by diluting the 10 mM of ATP in 1.33× Kinase Buffer to 300 uM. • 6) Development Solution: Dilute Development Reagent B with Development Buffer as 1:128.
Shake the plate for 30 Sec and centrifuge (1500 rpm, 1 min) • Seal the plate to protect from the light and incubate the plate for 1 hour at RT (25-30[…]) • 2) Development reaction • Add 5 μl of the Development solution to all wells • Shake the plate for 30 Sec and centrifuge (1500 rpm, 1 min) • Seal the plate to protect from the light and incubate the plate for 1 hour at RT (25-30[…]) • 3) Stop and read • Add 5 μl of the Stop reagent to all wells • Shake the plate for 30 Sec and centrifuge (1500 rpm, 1 min) • Measure the value of Coumarin (Ex400 nm, Em445 nm) and fluorescein (Ex400 nm, Em520 nm), respectively.
Inhibition rate(IR)=1−%Photest Cpd/%PhoC2
• determined with add-in software for Microsoft Excel, XLfit™ (version 2.0) from ID Business Solutions (Guildford, UK)

[4] = biological target: Recombinant human FGFR2 (Homo sapiens, UniProt P21802); assay: Transcreener Kinase Assay of FGFR2; type: biochemical; details: read-out: FGFR2 (FP) IC50
Recombinant human FGFR2, sequence (P21802 22-821): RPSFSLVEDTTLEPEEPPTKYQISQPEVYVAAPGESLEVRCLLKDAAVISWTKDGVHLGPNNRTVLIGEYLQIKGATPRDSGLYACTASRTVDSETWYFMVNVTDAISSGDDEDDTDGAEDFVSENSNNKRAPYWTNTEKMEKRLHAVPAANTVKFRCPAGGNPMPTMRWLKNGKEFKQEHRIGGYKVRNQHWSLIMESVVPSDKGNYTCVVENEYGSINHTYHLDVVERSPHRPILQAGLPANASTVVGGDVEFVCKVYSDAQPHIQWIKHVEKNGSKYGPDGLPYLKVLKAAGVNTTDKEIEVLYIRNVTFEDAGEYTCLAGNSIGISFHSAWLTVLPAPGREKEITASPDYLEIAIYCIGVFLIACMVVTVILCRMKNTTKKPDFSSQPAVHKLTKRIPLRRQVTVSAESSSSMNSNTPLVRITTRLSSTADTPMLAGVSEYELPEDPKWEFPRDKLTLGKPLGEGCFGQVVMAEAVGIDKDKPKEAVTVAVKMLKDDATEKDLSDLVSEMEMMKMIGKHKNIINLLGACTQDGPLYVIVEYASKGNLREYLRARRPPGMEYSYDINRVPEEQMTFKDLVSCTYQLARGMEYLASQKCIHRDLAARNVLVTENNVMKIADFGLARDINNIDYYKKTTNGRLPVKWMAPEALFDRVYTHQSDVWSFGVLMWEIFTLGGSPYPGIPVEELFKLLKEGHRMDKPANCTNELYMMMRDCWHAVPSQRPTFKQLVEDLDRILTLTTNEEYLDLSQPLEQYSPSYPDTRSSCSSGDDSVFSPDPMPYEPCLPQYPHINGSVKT
Procedure: Transcreener Kinase Assay of FGFR2
as §1, with “•” for “Prepare Solution •”, “FGFR2” for “FGFR1”, “buffer. The final concentration is 0.3 ng/μL for FGFR2 and 62.5 ng/μL for Poly E4Y. The mixture is being kept in ice before use; • Prepare ATP Diluents, 10 mM ATP is diluted in assay buffer, the final concentration is 25 μM; • Prepare ADP Diluents: diluted ADP (500 μM) in assay buffer, the final concentration is 25 μM; • Prepare ATP standard curve stock as following:” for “buffer.”
as §2, with “•” for “Enzymatic Reaction •”
• Detection Mix Preparation: The mixture is made by dilution with MilliQ water; as following: ADP Alexa633 tracer (1:100), ADP antibody (1:158), and stop & detect buffer (1:10); • Tracer Only control Preparation: The mixture is made by dilution with MilliQ water; as following: ADP Alexa633 tracer (1:100), and stop & detect buffer (1:10) • No Tracer control Preparation: stop & detect buffer is diluted with MilliQ water; by 10 fold. • Add 25 μL of detection mix, Tracer Only control and No Tracer control into corresponding wells, respectively; • Incubate at 28 °C for 1 h, on a plate shaker in a low speed; • Measure florescence polarization (FP) on TECAN F500. Excitation wavelength: 610 nm, Emission wavelength: 670 nm.
as §3

[5] = system: KG-1; assay: Cellular Proliferation Assay (Cell Counting Kit-8), KG-1; type: cell-based; details: Homo sapiens, KG1 cells, 72 hours
Procedure: as §4, §5, §6, §7, §8

Recombinant human FGFR1, sequence (P11362 22-822): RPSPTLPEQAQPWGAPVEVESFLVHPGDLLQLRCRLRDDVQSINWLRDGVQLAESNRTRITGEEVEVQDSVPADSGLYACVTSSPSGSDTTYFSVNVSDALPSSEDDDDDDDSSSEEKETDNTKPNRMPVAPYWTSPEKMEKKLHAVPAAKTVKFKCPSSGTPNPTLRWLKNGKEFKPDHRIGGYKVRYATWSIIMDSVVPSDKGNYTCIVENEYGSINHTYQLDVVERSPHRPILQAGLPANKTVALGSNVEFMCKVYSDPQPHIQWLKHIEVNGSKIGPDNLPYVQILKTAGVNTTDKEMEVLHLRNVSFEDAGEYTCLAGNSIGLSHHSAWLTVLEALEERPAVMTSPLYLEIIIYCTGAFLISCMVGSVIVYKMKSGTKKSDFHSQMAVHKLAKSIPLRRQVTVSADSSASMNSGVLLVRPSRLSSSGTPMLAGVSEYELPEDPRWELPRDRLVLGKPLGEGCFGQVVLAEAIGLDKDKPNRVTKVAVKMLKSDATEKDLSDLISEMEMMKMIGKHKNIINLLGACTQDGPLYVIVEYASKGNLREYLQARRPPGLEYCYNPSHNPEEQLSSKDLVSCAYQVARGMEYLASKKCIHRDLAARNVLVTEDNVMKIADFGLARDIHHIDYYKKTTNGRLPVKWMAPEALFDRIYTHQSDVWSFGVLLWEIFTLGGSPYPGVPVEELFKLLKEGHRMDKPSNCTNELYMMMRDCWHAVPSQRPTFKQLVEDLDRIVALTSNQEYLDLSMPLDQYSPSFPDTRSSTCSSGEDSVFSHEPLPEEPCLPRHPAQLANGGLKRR

Row | IC50 [1] [nM] | IC50 [2] [nM] | IC50 [3] [nM] | IC50 [4] [nM] | SMILES | IC50 [5] [nM]
1 | 38 | 44 | 64 | 28 | CCN1CCN(c2cccc(Nc3ncc(CCc4cc(OC)cc(C(=O)NC)c4)cn3)c2)CC1 [Compound 9, 3-(2-(2-((3-(4-ethylpiperazin-1-yl)phenyl)amino)pyrimidin-5-yl)ethyl)-5-methoxy-N-methylbenzamide] | 98
2 | 3 | 7 | 4 | 4 | CCN1CCN(c2cccc(Nc3ncc(CCc4cc(OC)cc(C(=O)NOC)c4)cn3)c2)CC1 [Compound 14, 3-(2-(2-((3-(4-ethylpiperazin-1-yl)phenyl)amino)pyrimidin-5-yl)ethyl)-N,5-dimethoxybenzamide] | 9
3 | 4 | 12 | 9 | 6 | CCN1CCN(c2ccc(Nc3ncc(CCc4cc(OC)cc(C(=O)NOC)c4)cn3)cc2)CC1 [Compound 17] | 9
4 | 5 | 22 | 11 | 5 | CONC(=O)c1cc(CCc2cnc(Nc3ccc(N4CCN(CCO)CC4)cc3)nc2)cc(OC)c1 [Compound 19, 3-(2-(2-((4-(4-(2-hydroxyethyl)piperazin-1-yl)phenyl)amino)pyrimidin-5-yl)ethyl)-N,5-dimethoxybenzamide] | 19
5 | 43 | 340 | 128 | 34 | CCN1CCN(c2ccc(Nc3ncc(CCc4cc(OC)cc(C(=O)NOCCO)c4)cn3)cc2)CC1 [Compound 20, 3-(2-(2-((4-(4-ethylpiperazin-1-yl)phenyl)amino)pyrimidin-5-yl)ethyl)-N-(2-hydroxyethoxy)-5-methoxybenzamide] | 589
6 | 2 | 15 | 8 | 4 | CCN1CCN(c2ccc(Nc3ncc(CCc4cc(OC)cc(C(=O)NOC)c4)cn3)cn2)CC1 [Compound 42] | 11
7 | 132 | 113 | 61 | 34 | CCN1CCN(c2ccc(Nc3ncc(CCc4cc(OC)cc(C(=O)NC5CC5)c4)cn3)cc2)CC1 [Compound 46] | 59

More lines, now with the values behind:

Row | SMILES | IC50 [1] [nM] | IC50 [2] [nM] | IC50 [3] [nM] | IC50 [4] [nM] | IC50 [5] [nM]
8 | CCN1CCN(c2ccc(Nc3ncc(CCc4cc(C(=O)NOC)cc5occc45)cn3)cc2)CC1 [Compound 5] | 13 | 56 | 47 | 12 | 24
9 | CCN1CCN(c2ccc(Nc3ncc(/C=C/c4cc(OC)cc(C(=O)NOC)c4)cn3)cc2)CC1 [Compound 16] | 12 | 17 | 16 | 8 | 13
10 | CONC(=O)c1cc(CCc2cnc(Nc3cccc(N4C[C@@H](C)N[C@@H](C)C4)c3)nc2)cc(OC)c1 [Compound 18] | 12 | 3 | 8 | 6 | 77
11 | CONC(=O)c1cc(CCc2cnc(Nc3cnn(C)c3)nc2)cc(OC)c1 [Compound 23] | 9 | 18 | 13 | 6 | 29
12 | CONC(=O)c1cc(CCc2cnc(Nc3ccn(C)n3)nc2)cc(OC)c1 [Compound 24] | 47 | 151 | 94 | 27 | 122
13 | CONC(=O)c1cc(CCc2cnc(Nc3cnn(C)c3)nc2)c(F)c(OC)c1 [Compound 29] | 3 | 5 | 7 | 2 | 5
14 | CONC(=O)c1cc(CCc2cnc(Nc3ccc(N4CCOCC4)cc3)nc2)cc(OC)c1 [Compound 37] | 10 | 44 | 16 | 7 | 46
15 | CONC(=O)c1cc(CCc2cnc(Nc3ccc(N4CCN(C)[C@H](C)C4)cc3)nc2)cc(OC)c1 [Compound 40] | 12 | 48 | 39 | 10 | 31
16 | CONC(=O)c1cc(CCc2cnc(Nc3ccc(N4C[C@@H](C)N[C@@H](C)C4)cc3)nc2)cc(OC)c1 [Compound 41] | 4 | 24 | 9 | 6 | 38
17 | CONC(=O)c1cc(CCc2cnc(Nc3ccc(OCCN4CCCC4)cc3)nc2)cc(OC)c1 [Compound 43] | 16 | 33 | 48 | 10 | 69
18 | CCN1CCN(c2ccc(Nc3ccc(CCc4cc(C(=O)NOC)cc(OC)c4C)cn3)cc2)CC1 [Compound 47] | 6 | 74 | 8 | 6 | 63
19 | CCN1CCN(c2ccc(Nc3ncc(CCc4cc(OC)cc(C(=O)NOC)c4)cn3)cc2)C[C@H]1C [Compound 48] | 5 | 16 | 15 | 5 | 11
